Experiments:
HCC827 GR cells [1] = assay: MTS survival assay, gefitinib-resistant HCC827 GR cells; conditions: HCC827 GR cell lines / GR5; single drugs or combination
Procedure: This assay, a colorimetric method for determining the number of viable cells, is based on the bioreduction of 3-(4,5-dimethylthiazol-2-yl)-5-(3-carboxymethoxyphenyl)-2-(4-sulfophenyl)-2H-tetrazolium (MTS) by cells to a formazan product that is soluble in cell culture medium, can be detected spectrophotometrically and was performed according to previously established methods (3, 31, 10).
All experimental points were set up in six to twelve wells and all experiments were repeated at least three times. […] The curves were fitted using a non-linear regression model with a sigmoidal dose response.

[2] = tested on: ERBB3 and Gab1 association with p85 in HCC827 GR cells; assay: anti-p85 immunoprecipitation in HCC827 GR cells; format: cell-based; conditions: 1 μM each drug, 6 hours (FIG. 2C)
[3] = tested on: EGFR mutant HCC827 cells and ERBB2 amplified BT474 cells; assay: p85 immunoprecipitation and Western blot in control cell lines HCC827 and BT474; format: cell-based; conditions: 1 μM, 6 hours (FIG. 3A)
[4] = tested on: H1993 NSCLC cells, SNU638 and MKN45 gastric cancer cells; assay: p85 immunoprecipitation and Western blot in MET amplified cell lines; conditions: 1 μM, 6 hours (FIG. 3A)
Procedure: Lysates were immunoprecipitated with anti-p85 antibodies and the immunoprecipitates were probed with anti-phospho-tyrosine, anti-ERBB-3 and anti-p85 antibodies (* indicates ERBB3 on the PTyr blot). In parallel, the lysates were analyzed by Western blotting and probed with the indicated antibodies.
Cells grown under the previously specified conditions were lysed in the following lysis buffer: 20 mM Tris, pH 7.4/150 mM NaCl/1% Nonidet P-40/10% glycerol/1 mM EDTA/1 mM EGTA/5 mM sodium pyrophosphate/50 mM NaF/10 nM (3-glycerophosphate/1 mM sodium vanadate/0.5 mM DTT/4 μg/ml leupeptin/4 μg/ml pepstatin/4 μg/ml apoprotein/1 mM PMSF. After cell lysis, lysates were centrifuged at 16,000×g for 5 min at 4° C. The supernatant was used for subsequent procedures. Western blot analyses were conducted after separation by SDS/PAGE electrophoresis and transfer to nitrocellulose membranes. Immunoblotting was performed according to the antibody manufacturers' recommendations. Antibody binding was detected using an enhanced chemiluminescence system (New England Nuclear Life Science Products Inc.).
Anti-ErbB-3 antibody was obtained from Lab Vision. […] The total Met (C-28) antibody was purchased from Santa Cruz Biotechnology (Santa Cruz, Calif.).

[5] = tested on: CHO cells co-expressing MET and ERBB3; conditions: PHA-665,752 1 μM
Procedure: Lysates were immunoprecipitated with anti-p85 antibodies and the immunoprecipitates were probed with anti-phospho-tyrosine, anti-ERBB-3 and anti-p85 antibodies (* indicates ERBB3 on the PTyr blot). In parallel, the lysates were analyzed by Western blotting and probed with the indicated antibodies. […] Lentiviral shRNA constructs containing a scrambled (SC) sequence, ERBB3 specific sequence, a control sequence (CTRL) or GFP were infected into SNU638 cells (Methods). Seventy-two hours following infection, the cells were lysed and probed with indicated antibodies. […] C. […] Growth of SNU-638 cells was assayed by an MTS assay 5 days following infection of shRNA constructs in B. Growth is normalized to the SC shRNA. […] The resulting proteins were lysed and probed with the indicated antibodies. […] The resulting lysates were probed with either ERBB3 or MET.

HCC827 GR cells [6] = assay: Western blot of EGFR/ERBB3/PI3K/Akt signaling in HCC827 GR cells; format: cell-based; conditions: 1 μM each drug, 6 hours (FIG. 2B)
HCC827 cells [7] = assay: Western blot of AKT phosphorylation in HCC827 treated with gefitinib and HGF; format: cell-based; conditions: gefitinib alone or with HGF, 6 hours (FIG. 10 top right)
HCC827 cells [8] = assay: crystal violet staining of viable HCC827 cells, gefitinib and HGF; format: cell-based; conditions: 10 days, gefitinib 1 uM, HGF 50, 10 or 2 ng/ml (FIG. 10 bottom)
Procedure: […] cells were seeded in a 10 cm petri dish and treated with the indicated conditions for 10 days. Gefitnib was used at 1 uM, and HGF was used at 50, 10, or 2 ng/ml. The plates were then stained with crystal violet to visualize viable cells.

HCC827 cells [9] = assay: MTS survival assay of HCC827 cells with HGF in the presence of gefitinib; format: cell-based; conditions: 50 ng/ml of HGF (FIG. 10 top left)
Excerpt: MET activity was induced by treating HCC827 cells with its ligand, HGF (hepatocyte growth factor).

Molecule | growth of HCC827 GR cells under drug (MTS) (HCC827 GR cells [1]) | co-precipitation of ERBB3 and Gab1 with p85 [2] | PI3K signaling [3] | ERBB3 and Akt phosphorylation [4] | ERBB3 association with p85 [4] | ERBB3 phosphorylation ([5]; CHO co-expressing MET and ERBB3, gefitinib 3 mM (so in the source), lapatinib 3 μM, PP2 10 μM, 6 hours (FIG. 3D)) | p85 co-precipitation with ERBB3 ([5]; CHO transfected with MET and ERBB3, gefitinib 3 μM, lapatinib 3 μM (FIG. 3E)) | ERBB3 and Akt phosphorylation (HCC827 GR cells [6]) | ERBB3 and Akt phosphorylation (HCC827 GR cells [6]; listed as PHA-665752) | AKT phosphorylation (HCC827 cells [7]) | viable cells (crystal violet) (HCC827 cells [8]) | survival in the presence of gefitinib (MTS) (HCC827 cells [9])
CC#CC(=O)Nc1ccc2ncnc(Nc3cccc(Br)c3)c2c1 [CL-387,785] | did not suppress the growth |  |  |  |  |  |  |  |  |  |  | 
Cc1[nH]c(/C=C2\C(=O)Nc3ccc(S(=O)(=O)Cc4c(Cl)cccc4Cl)cc32)c(C)c1C(=O)N1CCC[C@@H]1CN1CCCC1 [PHA-665,752] | resistant | blocks Gab-1 association with p85 | has no effect on PI3K signaling | only inhibited | disrupted | blocked | inhibited | minimal effect on P-Akt levels | no significant effect on p-ERBB3 or p-AKT |  |  | 
HGF: hepatocyte growth factor, ligand of MET |  |  |  |  |  |  |  |  |  | at least partially reversed | increases with increased concentrations | markedly improved survival

Reference: US11008620B2, “Methods for treating cancer resistant to ErbB therapeutics” (Dana-Farber Cancer Institute, Inc., priority 2007, dated 2021)
